The results in this text go back to ChEMBL document CHEMBL1139695, “Development of pyrimidine-based inhibitors of Janus tyrosine kinase 3” (Bioorg Med Chem Lett, 2006).

The structures appear in SMILES notation.

Experiment [1] deals with TF-1. Put plainly: cells. The note with it: Homo sapiens.
Description: Inhibition of IL3-induced proliferation of TF1 cells
Experiment [2] concerns TF-1. Put plainly: cells. Particulars: Homo sapiens. The source holds these as a separate data set.
Description: Inhibition of IL4-induced proliferation of TF1 cells

By IC50 is commonly meant the concentration that gives 50% inhibition. Read a low IC50 as greater potency in that assay. As for `C[C@H](Nc1ccnc(-n2cnc3ccncc32)n1)c1ccc(F)cc1`, the results for the IC50 in the experiment on TF-1 [1] and in the experiment with TF-1 [2] were 635 nM and 335 nM, respectively.
